Reference: patent US20230278995A1, “1,3,4-OXADIAZOLE DERIVATIVE COMPOUNDS AS HISTONE DEACETYLASE 6 INHIBITOR, AND THE PHARMACEUTICAL COMPOSITION COMPRISING THE SAME” (CHONG KUN DANG PHARMACEUTICAL CORP., priority 2020, published 2023)
Each block holds one molecule with its values, some of them ahead of it.

Legend:
human recombinant HDAC1 = target: T1, human recombinant HDAC1 (Homo sapiens, UniProt Q13547); assay: HDAC enzyme activity inhibition assay (HDAC Fluorimetric Drug Discovery Kit), HDAC1; format: biochemical; details: human recombinant HDAC1, Fluor de Lys-SIRT1 substrate, 30° C. 60 minutes
T1 construct: purchased Enzo Life Sciences, Inc. BML-SE456
T1 sequence (Q13547 whole entry): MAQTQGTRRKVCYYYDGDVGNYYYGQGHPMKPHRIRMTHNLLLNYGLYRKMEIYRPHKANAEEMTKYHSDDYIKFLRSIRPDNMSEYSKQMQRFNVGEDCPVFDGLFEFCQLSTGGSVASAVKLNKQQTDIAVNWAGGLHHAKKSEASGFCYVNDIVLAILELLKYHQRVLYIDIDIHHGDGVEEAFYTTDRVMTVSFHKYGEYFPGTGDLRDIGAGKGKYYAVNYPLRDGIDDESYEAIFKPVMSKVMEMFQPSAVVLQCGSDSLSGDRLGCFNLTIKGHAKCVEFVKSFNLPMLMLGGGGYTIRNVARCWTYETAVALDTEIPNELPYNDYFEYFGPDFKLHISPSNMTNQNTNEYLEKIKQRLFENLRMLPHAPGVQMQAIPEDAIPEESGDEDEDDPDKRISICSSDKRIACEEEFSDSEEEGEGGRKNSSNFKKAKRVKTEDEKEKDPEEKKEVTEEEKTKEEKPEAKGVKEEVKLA
Procedure, shortened: (§1)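 The preceding reaction ran 60 min at 30 °C with 0.3 μg recombinant human enzyme, HDAC1 or HDAC6 under an identical protocol, and 10 μM Fluor de Lys-SIRT1 substrate, across 5-fold diluted compound.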

human recombinant HDAC6 = target: T2, human recombinant HDAC6 (Homo sapiens, UniProt Q9UBN7); assay: HDAC enzyme activity inhibition assay (HDAC Fluorimetric Drug Discovery Kit), HDAC6; format: biochemical; details: for HDAC6 selectivity (fold): HDAC1 vs HDAC6; for IC50: human recombinant HDAC6, same protocol as HDAC1
T2 construct: purchased Calbiochem Inc. 382180
T2 sequence (Q9UBN7 1-1215): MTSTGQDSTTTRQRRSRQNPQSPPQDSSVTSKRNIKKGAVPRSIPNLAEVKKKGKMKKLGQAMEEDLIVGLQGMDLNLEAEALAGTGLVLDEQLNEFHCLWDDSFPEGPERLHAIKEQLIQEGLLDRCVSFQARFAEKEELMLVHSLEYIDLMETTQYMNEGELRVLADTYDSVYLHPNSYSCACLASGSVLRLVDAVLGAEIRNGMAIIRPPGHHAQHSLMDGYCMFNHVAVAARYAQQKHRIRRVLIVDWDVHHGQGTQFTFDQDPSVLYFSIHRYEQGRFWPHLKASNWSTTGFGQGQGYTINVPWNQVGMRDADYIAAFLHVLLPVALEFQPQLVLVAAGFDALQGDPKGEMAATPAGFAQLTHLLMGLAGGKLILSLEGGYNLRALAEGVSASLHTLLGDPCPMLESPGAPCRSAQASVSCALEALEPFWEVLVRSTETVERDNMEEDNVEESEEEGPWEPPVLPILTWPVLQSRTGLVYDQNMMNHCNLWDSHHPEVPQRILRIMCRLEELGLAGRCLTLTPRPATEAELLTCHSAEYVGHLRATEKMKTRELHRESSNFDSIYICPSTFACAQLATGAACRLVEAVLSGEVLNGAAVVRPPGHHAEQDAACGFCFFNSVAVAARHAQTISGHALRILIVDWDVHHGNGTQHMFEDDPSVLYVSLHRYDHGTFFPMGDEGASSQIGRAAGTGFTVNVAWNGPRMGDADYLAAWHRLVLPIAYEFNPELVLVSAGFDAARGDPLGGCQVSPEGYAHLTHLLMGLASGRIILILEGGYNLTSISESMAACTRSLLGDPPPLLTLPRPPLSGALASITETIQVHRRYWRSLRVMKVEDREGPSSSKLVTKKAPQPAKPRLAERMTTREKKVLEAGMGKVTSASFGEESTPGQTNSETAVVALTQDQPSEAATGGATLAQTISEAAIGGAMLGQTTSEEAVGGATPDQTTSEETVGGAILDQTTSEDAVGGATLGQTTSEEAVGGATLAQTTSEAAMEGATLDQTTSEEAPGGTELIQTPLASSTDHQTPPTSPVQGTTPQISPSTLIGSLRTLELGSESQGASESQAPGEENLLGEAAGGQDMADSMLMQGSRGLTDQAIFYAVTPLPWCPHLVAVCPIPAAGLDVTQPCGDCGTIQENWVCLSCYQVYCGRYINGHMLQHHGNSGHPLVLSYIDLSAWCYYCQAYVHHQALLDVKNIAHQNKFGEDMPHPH
Procedure, shortened: as §1

- IC50 (human recombinant HDAC1): 38.5 µM
- HDAC6 selectivity (fold) (human recombinant HDAC6): 448 fold
- IC50 (human recombinant HDAC6): 85.9 nM
SMILES: CCC(=O)N1CC(F)(C(=O)N(Cc2ccc(-c3nnc(C(F)F)o3)cc2F)c2ccccc2)C1 [Compound 3433, N-(4-(5-(difluoromethyl)-1,3,4-oxadiazol-2-yl)-2-fluorobenzyl)-3-fluoro-N-phenyl-1-propionylazetidine-3-carboxamide]

- IC50 (human recombinant HDAC1): > 50 µM
- HDAC6 selectivity (fold) (human recombinant HDAC6): 441 fold
- IC50 (human recombinant HDAC6): 113 nM
SMILES: CC(C)C(=O)N1CC(F)(C(=O)N(Cc2ccc(-c3nnc(C(F)F)o3)cc2F)c2ccccc2)C1 [Compound 3434, N-(4-(5-(difluoromethyl)-1,3,4-oxadiazol-2-yl)-2-fluorobenzyl)-3-fluoro-1-isobutyryl N-phenylazetidine-3-carboxamide]

- IC50 (human recombinant HDAC1): > 50 µM
- HDAC6 selectivity (fold) (human recombinant HDAC6): 325 fold
- IC50 (human recombinant HDAC6): 154 nM
SMILES: O=C(N1CC(F)(C(=O)N(Cc2ccc(-c3nnc(C(F)F)o3)cc2F)c2ccccc2)C1)C(F)(F)F [Compound 3435, N-(4-(5-(difluoromethyl)-1,3,4-oxadiazol-2-yl)-2-fluorobenzyl)-3-fluoro-N-phenyl-1-(2,2,2-trifluoroacetyl)azetidine-3-carboxamide]

- IC50 (human recombinant HDAC1): > 50 µM
- HDAC6 selectivity (fold) (human recombinant HDAC6): 378 fold
- IC50 (human recombinant HDAC6): 132 nM
SMILES: CS(=O)(=O)N1CC(F)(C(=O)N(Cc2ccc(-c3nnc(C(F)F)o3)cc2F)c2ccccc2)C1 [Compound 3436, N-(4-(5-(difluoromethyl)-1,3,4-oxadiazol-2-yl)-2-fluorobenzyl)-3-fluoro-1-(methylsulfonyl)-N-phenylazetidine-3-carboxamide]

- IC50 (human recombinant HDAC1): > 50 µM
- HDAC6 selectivity (fold) (human recombinant HDAC6): 302 fold
- IC50 (human recombinant HDAC6): 166 nM
SMILES: CC(=O)N1CCC(F)(C(=O)N(Cc2ccc(-c3nnc(C(F)F)o3)cc2F)c2ccccc2)CC1 [Compound 3438, 1-acetyl-N-(4-(5-(difluoromethyl)-1,3,4-oxadiazol-2-yl)-2-fluorobenzyl)-4-fluoro-N-phenylpiperidine-4-carboxamide]

- IC50 (human recombinant HDAC1): > 50 µM
- HDAC6 selectivity (fold) (human recombinant HDAC6): 238 fold
- IC50 (human recombinant HDAC6): 210 nM
SMILES: CCC(=O)N1CCC(F)(C(=O)N(Cc2ccc(-c3nnc(C(F)F)o3)cc2F)c2ccccc2)CC1 [Compound 3439, N-(4-(5-(difluoromethyl)-1,3,4-oxadiazol-2-yl)-2-fluorobenzyl)-4-fluoro-N-phenyl-1-propionylpiperidine-4-carboxamide]

- IC50 (human recombinant HDAC1): > 50 µM
- HDAC6 selectivity (fold) (human recombinant HDAC6): 178 fold
- IC50 (human recombinant HDAC6): 280 nM
SMILES: CC(C)C(=O)N1CCC(F)(C(=O)N(Cc2ccc(-c3nnc(C(F)F)o3)cc2F)c2ccccc2)CC1 [Compound 3440, N-(4-(5-(difluoromethyl)-1,3,4-oxadiazol-2-yl)-2-fluorobenzyl)-4-fluoro-1-isobutyryl N-phenylpiperidine-4-carboxamide]

Continued, molecule first:

SMILES: CC(C)N1CCC(F)(C(=O)N(Cc2ccc(-c3nnc(C(F)F)o3)cc2F)c2ccccc2)CC1 [Compound 3437, N-(4-(5-(difluoromethyl)-1,3,4-oxadiazol-2-yl)-2-fluorobenzyl)-4-fluoro-1-isopropyl-N-phenylpiperidine-4-carboxamide]
- IC50 (human recombinant HDAC1): > 50 µM
- HDAC6 selectivity (fold) (human recombinant HDAC6): 226 fold
- IC50 (human recombinant HDAC6): 221 nM

SMILES: CS(=O)(=O)N1CCC(F)(C(=O)N(Cc2ccc(-c3nnc(C(F)F)o3)cc2F)c2ccccc2)CC1 [Compound 3442, N-(4-(5-(difluoromethyl)-1,3,4-oxadiazol-2-yl)-2-fluorobenzyl)-4-fluoro-1-(methylsulfonyl)-N-phenylpiperidine-4-carboxamide]
- IC50 (human recombinant HDAC1): > 50 µM
- HDAC6 selectivity (fold) (human recombinant HDAC6): 154 fold
- IC50 (human recombinant HDAC6): 324 nM

SMILES: CCN1CCC(F)(C(=O)N(Cc2ccc(-c3nnc(C(F)F)o3)cn2)c2cccc(F)c2)CC1 [Compound 3443, N-((5-(5-(difluoromethyl)-1,3,4-oxadiazol-2-yl)pyridin-2-yl)methyl)-1-ethyl-4-fluoro N-(3-fluorophenyl)piperidine-4-carboxamide]
- IC50 (human recombinant HDAC1): > 50 µM
- HDAC6 selectivity (fold) (human recombinant HDAC6): 967 fold
- IC50 (human recombinant HDAC6): 51.7 nM

SMILES: CC(C)(C)OC(=O)N1CC(F)(C(=O)N(Cc2ccc(-c3nnc(C(F)(F)F)o3)cn2)c2cccc(F)c2)C1 [Compound 6890, tert-butyl 3-fluoro-3-((3-fluorophenyl)((5-(5-(trifluoromethyl)-1,3,4-oxadiazol-2-yl)pyridin-2-yl)methyl)carbamoyl)azetidine-1-carboxylate]
- IC50 (human recombinant HDAC1): > 50 µM
- HDAC6 selectivity (fold) (human recombinant HDAC6): 57 fold
- IC50 (human recombinant HDAC6): 877 nM

SMILES: CN1CC(F)(C(=O)N(Cc2ccc(-c3nnc(C(F)(F)F)o3)cn2)c2cccc(F)c2)C1 [Compound 6891, 3-fluoro-N-(3-fluorophenyl)-1-methyl-N-((5-(5-(trifluoromethyl)-1,3,4-oxadiazol-2-yl)pyridin-2-yl)methyl)azetidine-3-carboxamide]
- IC50 (human recombinant HDAC1): > 50 µM
- HDAC6 selectivity (fold) (human recombinant HDAC6): 196 fold
- IC50 (human recombinant HDAC6): 254 nM
